# From US10808003B2, “Amphipathic molecule based on tandem malonate and use thereof” (Industry-University Cooperation Foundation Hanyang …, priority 2017, dated 2020)
# What was measured:
# [1] = target: T1, uric acid-xanthine/H+ symporter (UapA) (Emericella nidulans, UniProt Q07307, G411V); assay: Thermal/structural stability of UapA by CPM fluorescence assay; assay type: biochemical, Aspergillus nidulans; conditions: for ability to conserve UapA transporter in a folded state: 125 minutes at 40° C.
# T1 construct: GFP; made in house; host or cells: Saccharomyces cerevisiae FGY217
# T1 sequence (Q07307 12-574 G411V): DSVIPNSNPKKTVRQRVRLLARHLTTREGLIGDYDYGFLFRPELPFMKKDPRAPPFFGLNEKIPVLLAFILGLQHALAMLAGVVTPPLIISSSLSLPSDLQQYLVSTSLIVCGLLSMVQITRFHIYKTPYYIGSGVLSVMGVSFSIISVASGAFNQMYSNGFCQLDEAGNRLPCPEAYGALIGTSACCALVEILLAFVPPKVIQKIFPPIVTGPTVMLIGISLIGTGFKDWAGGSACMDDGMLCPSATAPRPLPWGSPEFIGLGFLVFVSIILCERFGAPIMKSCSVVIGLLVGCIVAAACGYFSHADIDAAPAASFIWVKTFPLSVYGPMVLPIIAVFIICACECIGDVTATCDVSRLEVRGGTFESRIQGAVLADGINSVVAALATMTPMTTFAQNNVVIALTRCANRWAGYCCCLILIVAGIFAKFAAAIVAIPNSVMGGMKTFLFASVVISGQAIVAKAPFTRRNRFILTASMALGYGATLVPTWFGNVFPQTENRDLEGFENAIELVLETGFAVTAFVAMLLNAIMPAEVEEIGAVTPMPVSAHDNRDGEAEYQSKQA
# Description: An experiment of measuring structural stability of a uric acid-xanthine/H+ symporter (UapA) separated from Aspergillus nidulans by TMG was performed. The structural stability of UapA was evaluated using a sulfhydryl-specific fluorophore and N-[4-(7-diethylamino-4-methyl-3-coumarinyl)phenyl]maleimide (CPM).
# Specifically, UapAG411V1-11 (hereinafter, referred to as “UapA”) expressed as a GFP fusion protein from a Saccharomyces cerevisiae FGY217 strain, and the protein was separated using a sample buffer (20 mM Tris (pH 7.5), 150 mM NaCl, 0.03% DDM, 0.6 mM xanthine) according to a method disclosed in the article written by J. Leung et al. (Mol. Membr. Biol. 2013, 30, 32-42). The protein having a molecular weight of 100 kDa was concentrated to approximately 10 mg/mL using a cut-off filter (Millipore). The protein was diluted with a buffer containing each of the TMG-As (TMG-A11, TMG-A12, TMG-A13 and TMG-A14), TMG-Ts (TMG-T11, TMG-T12, TMG-T13 and TMG-T14), MNG-3 or DDM at a ratio of 1:150 to reach the final concentration of CMC+0.04 wt % or CMC+0.2 wt % in a Greiner 96-well plate. A CPM dye (Invitrogen) stored in DMSO (Sigma) was diluted with a staining buffer (20 mM Tris (pH 7.5), 150 mM NaCl, 0.03% DDM, 5 mM EDTA), and 3 μL of the staining buffer was added to each sample. The reaction mixture was incubated at a constant temperature for 125 minutes at 40° C. Fluorescence emission was recorded using a microplate spectrofluorometer set to each of excitation and emission wavelengths of 387 nm and 463 nm. A relative amount of folded proteins was plotted over time using GraphPad Prism.
# [2] = Critical micelle concentration by fluorescent staining with diphenylhexatriene (DPH); assay type: physicochemical; conditions: aqueous solution
# Description: A method of measuring CMC is not particularly limited, and any method well known in the art, for example, a fluorescent staining method using diphenylhexatriene (DPH) may be used.
# (§1) Specifically, a CMC was measured using fluorescent staining and diphenylhexatriene (DPH), and the hydrodynamic radii (Rh) of micelles formed by each agent (1.0 wt %) were measured by a DLS test. The measured results were compared with those for the conventional amphipathic molecule (detergent), DDM, and thus are shown in Table 1.
# [3] = Hydrodynamic radius of micelles by dynamic light scattering (DLS); assay type: physicochemical; conditions: for Rh (nm), hydrodynamic radius of micelles: micelles formed by each agent at 1.0 wt %; for micelle size and homogeneity in words: 1.0 wt %, FIGS. 5 and 6
# Description: A method of measuring the radius of the micelles is not particularly limited, and any method well known in the art, for example, a DLS test may be used.
# as §1
# [4] = system: LeuT (leucine transporter); assay: LeuT stability by [3H]-Leu substrate binding, scintillation proximity assay (SPA); assay type: biochemical, Aquifex aeolicus; conditions: for activity of LeuT after incubation, relative to DDM: CMC+0.04 wt %, after incubation at room temperature; for activity of LeuT after incubation, relative to DDM / activity of LeuT over time: FIG. 13a; for activity of LeuT over time: TMMs or DDM at CMC+0.04 wt %, incubation at room temperature
# Description: An experiment of measuring LeuT protein stability for TMGs and TMMs was performed. (a) CMC+0.04 wt % or (b) CMC+0.2 wt % of each amphipathic molecule was used, and the evaluation of the LeuT protein stability was performed by taking an advantage of a characteristic of LeuT binding to a substrate through a scintillation proximity assay (SPA) using [^3H]-Leu. […]
# Specifically, wild type LeuT (leucine transporter) derived from a thermophilic bacterium, Aquifex aeolicus, was purified by a previously-disclosed method (G. Deckert et al., Nature 1998, 392, 353-358). LeuT was expressed in E. coli C41 (DE3) transformed with pET16b encoding a C-terminus 8×His-tagged transporter (the expression plasmid was provided by Dr E. Gouaux, Vollum Institute, Portland, Oreg., USA). In summary, following isolation of a bacterial membrane and lysis with 1% (w/v) DDM, the protein was allowed to bind to a Ni^2+-NTA resin (Life Technologies, Denmark), and eluted in 20 mM Tris-HCl (pH 8.0), 1 mM NaCl, 199 mM KCl, 0.05% (w/v) DDM and 300 mM imidazole. Afterward, the purified LeuT (approximately 1.5 mg/ml) was diluted with the same buffer used above, from which DDM and imidazole were removed, and then supplemented with TMGs or DDM at the final concentration of CMC+0.04% (w/v). […] SPA was performed using a buffer containing 450 mM NaCl and each of the TMGs and TMMs at the predetermined concentration. The SPA reaction is performed in the presence of 20 nM [^3H]-Leucine and 1.25 mg/ml copper chelate (His-Tag) YSi beads (Perkin Elmer, Denmark). A total [^3H]-Leucine binding degree of each sample was measured using a MicroBeta liquid scintillation counter (Perkin Elmer).
Structure (SMILES),"ability to maintain the UapA transporter structure, comparison with MNG-3 and DDM ([1]; concentration not given)",CMC [2] [mM],CMC (wt %) [2] [wt %],"Rh (nm), hydrodynamic radius of micelles [3] [nm]","ability to conserve UapA transporter in a folded state ([1]; CMC+0.04 wt %, FIG. 9)","ability to conserve UapA transporter in a folded state ([1]; CMC+0.2 wt %, FIG. 10)","substrate-binding ability of LeuT ([4]; TMGs or DDM at CMC+0.04 wt %, 10 days at room temperature)","activity of LeuT after incubation, relative to DDM [4]",micelle size and homogeneity in words [3],activity of LeuT over time [4],"overall LeuT stabilisation characteristic among TMMs ([4]; CMC+0.04 wt % and CMC+0.2 wt %, FIGS. 13a and 13b)"
"CCCCCCCCCCC(CCCCCCCCCC)(CO[C@@H]1O[C@H](CO)[C@@H](O[C@H]2O[C@H](CO)[C@@H](O)[C@H](O)[C@H]2O)[C@H](O)[C@H]1O)CO[C@@H]1O[C@H](CO)[C@@H](O[C@H]2O[C@H](CO)[C@@H](O)[C@H](O)[C@H]2O)[C@H](O)[C@H]1O [MNG-3, reference compound]",a little superior to DDM,–,–,–,–,–,–,–,–,–,–
CCCCCCCCCCCC(CCCC(CCCCCCCCCCC)(CO[C@@H]1OC(CO)[C@@H](O)C(O)C1O)CO[C@@H]1OC(CO)[C@@H](O)C(O)C1O)(CO[C@@H]1OC(CO)[C@@H](O)C(O)C1O)CO[C@@H]1OC(CO)[C@@H](O)C(O)C1O (stereo partly shown) [TMG-A11],–,~0.015,~0.0017,3.1 ± 0.15,the least excellent in transporter stability,"the least effective, and had lower stability than DDM",–,–,–,–,–
CCCCCCCCCCCCOCC(CO[C@@H]1OC(CO)[C@@H](O)C(O)C1O)(CO[C@@H]1OC(CO)[C@@H](O)C(O)C1O)CSCC(COCCCCCCCCCCCC)(CO[C@@H]1OC(CO)[C@@H](O)C(O)C1O)CO[C@@H]1OC(CO)[C@@H](O)C(O)C1O (stereo partly shown) [TMG-T12],–,~0.015,~0.0019,3.1 ± 0.06,–,–,a better characteristic than DDM,–,–,–,–
CC(C)CCC[C@@H](C)C1CCC2C3CCC4CC(OCC(CO[C@@H]5OC(CO)[C@@H](O[C@H]6OC(CO)[C@@H](O)C(O)C6O)C(O)C5O)(CO[C@@H]5OC(CO)[C@@H](O[C@H]6OC(CO)[C@@H](O)C(O)C6O)C(O)C5O)CSCC(COC5CCC6(C)C(CCC7C6CCC6(C)C7CCC6[C@H](C)CCCC(C)C)C5)(CO[C@@H]5OC(CO)[C@@H](O[C@H]6OC(CO)[C@@H](O)C(O)C6O)C(O)C5O)CO[C@@H]5OC(CO)[C@@H](O[C@H]6OC(CO)[C@@H](O)C(O)C6O)C(O)C5O)CCC4(C)C3CCC21C (stereo partly shown) [TMM-A27],–,~0.006,~0.00014,4.1 ± 0.10,–,–,–,protein activity similar to DDM,large,–,–
CCCCCCCCCCC(CCCCCCCCCC)COCC(CO[C@@H]1OC(CO)[C@@H](O[C@H]2OC(CO)[C@@H](O)C(O)C2O)C(O)C1O)(CO[C@@H]1OC(CO)[C@@H](O[C@H]2OC(CO)[C@@H](O)C(O)C2O)C(O)C1O)CSCC(COCC(CCCCCCCCCC)CCCCCCCCCC)(CO[C@@H]1OC(CO)[C@@H](O[C@H]2OC(CO)[C@@H](O)C(O)C2O)C(O)C1O)CO[C@@H]1OC(CO)[C@@H](O[C@H]2OC(CO)[C@@H](O)C(O)C2O)C(O)C1O (stereo partly shown) [TMM-C22],–,~0.002,~0.00044,3.6 ± 0.09,–,–,–,two-fold higher than that of the protein dissolved in DDM,–,slightly increased over time,–
CCCCCCCCCCCC(CCCCCCCCCCC)COCC(CO[C@@H]1OC(CO)[C@@H](O[C@H]2OC(CO)[C@@H](O)C(O)C2O)C(O)C1O)(CO[C@@H]1OC(CO)[C@@H](O[C@H]2OC(CO)[C@@H](O)C(O)C2O)C(O)C1O)CSCC(COCC(CCCCCCCCCCC)CCCCCCCCCCC)(CO[C@@H]1OC(CO)[C@@H](O[C@H]2OC(CO)[C@@H](O)C(O)C2O)C(O)C1O)CO[C@@H]1OC(CO)[C@@H](O[C@H]2OC(CO)[C@@H](O)C(O)C2O)C(O)C1O (stereo partly shown) [TMM-C24],–,~0.0015,~0.00034,3.9 ± 0.08,–,–,–,two-fold higher than that of the protein dissolved in DDM,–,slightly increased over time,the most excellent characteristic and was superior to DDM
CCCCCCCCCCCCC(CCCCCCCCCCCC)COCC(CO[C@@H]1OC(CO)[C@@H](O[C@H]2OC(CO)[C@@H](O)C(O)C2O)C(O)C1O)(CO[C@@H]1OC(CO)[C@@H](O[C@H]2OC(CO)[C@@H](O)C(O)C2O)C(O)C1O)CSCC(COCC(CCCCCCCCCCCC)CCCCCCCCCCCC)(CO[C@@H]1OC(CO)[C@@H](O[C@H]2OC(CO)[C@@H](O)C(O)C2O)C(O)C1O)CO[C@@H]1OC(CO)[C@@H](O[C@H]2OC(CO)[C@@H](O)C(O)C2O)C(O)C1O (stereo partly shown) [TMM-C26],–,~0.0015,~0.00034,4.3 ± 0.07,–,–,–,protein activity similar to DDM,–,–,–
CC1CCC2(OC1)OC1CC3C4CC=C5CC(OCC(CO[C@@H]6OC(CO)[C@@H](O[C@H]7OC(CO)[C@@H](O)C(O)C7O)C(O)C6O)(CO[C@@H]6OC(CO)[C@@H](O[C@H]7OC(CO)[C@@H](O)C(O)C7O)C(O)C6O)CSCC(COC6CCC7(C)C(=CCC8C7CCC7(C)C8CC8OC9(CCC(C)CO9)C(C)C87)C6)(CO[C@@H]6OC(CO)[C@@H](O[C@H]7OC(CO)[C@@H](O)C(O)C7O)C(O)C6O)CO[C@@H]6OC(CO)[C@@H](O[C@H]7OC(CO)[C@@H](O)C(O)C7O)C(O)C6O)CCC5(C)C4CCC3(C)C1C2C (stereo partly shown) [TMM-D27],–,~0.010,~0.0024,3.1 ± 0.07,–,–,–,protein activity similar to DDM,relatively small micelles,–,–
CC(C)CCC[C@@H](C)C1CCC2C3CC=C4CC(OCC(CO[C@@H]5OC(CO)[C@@H](O[C@H]6OC(CO)[C@@H](O)C(O)C6O)C(O)C5O)(CO[C@@H]5OC(CO)[C@@H](O[C@H]6OC(CO)[C@@H](O)C(O)C6O)C(O)C5O)CSCC(COC5CCC6(C)C(=CCC7C6CCC6(C)C7CCC6[C@H](C)CCCC(C)C)C5)(CO[C@@H]5OC(CO)[C@@H](O[C@H]6OC(CO)[C@@H](O)C(O)C6O)C(O)C5O)CO[C@@H]5OC(CO)[C@@H](O[C@H]6OC(CO)[C@@H](O)C(O)C6O)C(O)C5O)CCC4(C)C3CCC21C (stereo partly shown) [TMM-E27],–,~0.008,~0.00018,4.7 ± 0.10,–,–,–,protein activity similar to DDM,large,–,–
